Experimental data: US20240148820A1 (priority 2021, published 2024)
Where no end group is shown, it is not given here.

Molecular target: S protein of SARS-CoV-2 (Severe acute respiratory syndrome coronavirus 2, UniProt P0DTC2)
Assay type: binding

Sequence: IPLRGAFINGRWDSQCHRFS [U5]
- effect of U5 on P9R binding to S protein: not P9R binding to S protein
